According to patent US20230398130A1, “METHODS AND COMPOSITIONS FOR DIFFERENTIATING STEM CELLS” (Massachusetts Institute of Technology, priority 2020, published 2023):

Assays:
ISC-enriched organoids [1] = assay: Primary screen, 384-well 2.5-D organoid differentiation (ENR+CD, 6 days): carbachol-induced lysozyme secretion (LYZ.S); format: cell-based, murine; conditions: for Dose.FC.LYZ.S: FC vs plate median; for Z.LYZ.S: standard z score; for SSMD.LYZ.S: strictly standardized mean difference; for Dose.FC.LYZ.S (log 2 fold change): vs plate median
Excerpt: (§1) High-throughput screening.

ISC-enriched organoids [2] = assay: Primary screen, 384-well 2.5-D organoid differentiation (ENR+CD, 6 days, Target Selective Inhibitor Library, vs whole-plate median): ATP (CellTiter-Glo 3D, CTG); conditions: for Dose.FC.CTG: FC vs plate median; for SSMD.CTG: strictly standardized mean difference; for Dose.FC.CTG (log 2 fold change): vs plate median
ISC-enriched organoids [3] = assay: Primary screen, 384-well 2.5-D organoid differentiation (ENR+CD, 6 days): basal lysozyme secretion (LYZ.NS); format: cell-based, murine; conditions: for Dose.FC.LYZ.NS: FC vs plate median; for SSMD.LYZ.NS: strictly standardized mean difference; for Dose.FC.LYZ.NS (log 2 fold change): vs plate median
Excerpt: as §1

[4] = primary screen, 1st of the 4 dose lines of the treatment (dose not given)
[5] = primary screen, 2nd of the 4 dose lines of the treatment (dose not given)
[6] = primary screen, 3rd of the 4 dose lines of the treatment (dose not given)
[7] = primary screen, 4th of the 4 dose lines of the treatment (dose not given)
[8] = Dose 0.08 uM, primary screen, standard z score
[9] = Dose 0.40 uM, primary screen, standard z score
[10] = Dose 2.00 uM, primary screen, standard z score
[11] = Dose 10.00 uM, primary screen, standard z score
[12] = Dose 0.08 uM, standard z score of FC
[13] = Dose 0.40 uM, standard z score of FC
[14] = Dose 2.00 uM, standard z score of FC
[15] = Dose 10.00 uM, standard z score of FC

`O=C(/C=C\n1cnc(-c2cc(C(F)(F)F)cc(C(F)(F)F)c2)n1)N1CC(F)(F)C1` [KPT-276] was tested, and the Dose.FC.LYZ.S (ISC-enriched organoids [1]; Dose 0.08 uM, primary screen) was 0.133 log 2 fold change, the Dose.FC.LYZ.S (ISC-enriched organoids [1]; Dose 0.40 uM, primary screen) was 0.148 log 2 fold change and the Dose.FC.LYZ.S (ISC-enriched organoids [1]; Dose 2.00 uM, primary screen) was −0.327 log 2 fold change. For the same compound, the Dose.FC.LYZ.S (ISC-enriched organoids [1]; Dose 10.00 uM, primary screen) was −0.361 log 2 fold change, the Z.LYZ.S (ISC-enriched organoids [1]; [4]) was 0.860 and the Z.LYZ.S (ISC-enriched organoids [1]; [5]) was 0.958. It also gave a Z.LYZ.S (ISC-enriched organoids [1]; [6]) of −2.111, a Z.LYZ.S (ISC-enriched organoids [1]; [7]) of −2.335 and an SSMD.LYZ.S (ISC-enriched organoids [1]; [4]) of 0.806. It also gave an SSMD.LYZ.S (ISC-enriched organoids [1]; [5]) of 0.771, an SSMD.LYZ.S (ISC-enriched organoids [1]; [6]) of −1.399 and an SSMD.LYZ.S (ISC-enriched organoids [1]; [7]) of −1.417. The Dose.FC.CTG (ISC-enriched organoids [2]; Dose 0.08 uM, primary screen) was 0.167 log 2 fold change, the Z.CTG (ISC-enriched organoids [2]; [8]) was 0.399 and the Dose.FC.CTG (ISC-enriched organoids [2]; Dose 0.40 uM, primary screen) was −0.044 log 2 fold change. It also gave a Z.CTG (ISC-enriched organoids [2]; [9]) of −0.104, a Dose.FC.CTG (ISC-enriched organoids [2]; Dose 2.00 uM, primary screen) of −0.413 log 2 fold change and a Z.CTG (ISC-enriched organoids [2]; [10]) of −0.986. The Dose.FC.CTG (ISC-enriched organoids [2]; Dose 10.00 uM, primary screen) was −0.703 log 2 fold change, the Z.CTG (ISC-enriched organoids [2]; [11]) was −1.680 and the SSMD.CTG (ISC-enriched organoids [2]; [4]) was 0.494. For the same compound, the SSMD.CTG (ISC-enriched organoids [2]; [5]) was −0.146, the SSMD.CTG (ISC-enriched organoids [2]; [6]) was −0.772 and the SSMD.CTG (ISC-enriched organoids [2]; [7]) was −2.520. The Dose.FC.LYZ.NS (ISC-enriched organoids [3]; Dose 0.08 uM, primary screen) was 0.056 log 2 fold change, the Z.LYZ.NS (ISC-enriched organoids [3]; [8]) was 0.492 and the Dose.FC.LYZ.NS (ISC-enriched organoids [3]; Dose 0.40 uM, primary screen) was 0.086 log 2 fold change. For the same compound, the Z.LYZ.NS (ISC-enriched organoids [3]; [9]) was 0.746, the Dose.FC.LYZ.NS (ISC-enriched organoids [3]; Dose 2.00 uM, primary screen) was −0.224 log 2 fold change and the Z.LYZ.NS (ISC-enriched organoids [3]; [10]) was −1.947. The Dose.FC.LYZ.NS (ISC-enriched organoids [3]; Dose 10.00 uM, primary screen) was −0.256 log 2 fold change, the Z.LYZ.NS (ISC-enriched organoids [3]; [11]) was −2.230 and the SSMD.LYZ.NS (ISC-enriched organoids [3]; [4]) was 0.486. It also gave an SSMD.LYZ.NS (ISC-enriched organoids [3]; [5]) of 0.742, an SSMD.LYZ.NS (ISC-enriched organoids [3]; [6]) of −1.426 and an SSMD.LYZ.NS (ISC-enriched organoids [3]; [7]) of −1.384.

With `C=CC(=O)Nc1cccc(Nc2nc(Nc3ccc(Oc4ccnc(C(=O)NC)c4)cc3)ncc2F)c1` [CNX-774] the Dose.FC.LYZ.S (ISC-enriched organoids [1]; Dose 0.08 uM, ENR+CD, 6 days) was 0.014 log 2 fold change, the Dose.FC.LYZ.S (ISC-enriched organoids [1]; Dose 0.40 uM, ENR+CD, 6 days) was −0.027 log 2 fold change and the Dose.FC.LYZ.S (ISC-enriched organoids [1]; Dose 2.00 uM, ENR+CD, 6 days) was 0.082 log 2 fold change. It also gave a Dose.FC.LYZ.S (ISC-enriched organoids [1]; Dose 10.00 uM, ENR+CD, 6 days) of −0.089 log 2 fold change, a Dose.FC.CTG (ISC-enriched organoids [2]; Dose 0.08 uM, ENR+CD, 6 days) of 0.259 log 2 fold change and a Z.CTG (ISC-enriched organoids [2]; [12]) of 0.619. The Dose.FC.CTG (ISC-enriched organoids [2]; Dose 0.40 uM, ENR+CD, 6 days) was 0.177 log 2 fold change, the Z.CTG (ISC-enriched organoids [2]; [13]) was 0.422 and the Dose.FC.CTG (ISC-enriched organoids [2]; Dose 2.00 uM, ENR+CD, 6 days) was −0.109 log 2 fold change. For the same compound, the Z.CTG (ISC-enriched organoids [2]; [14]) was −0.260, the Dose.FC.CTG (ISC-enriched organoids [2]; Dose 10.00 uM, ENR+CD, 6 days) was −0.081 log 2 fold change and the Z.CTG (ISC-enriched organoids [2]; [15]) was −0.194. It also gave a Dose.FC.LYZ.NS (ISC-enriched organoids [3]; Dose 0.08 uM, ENR+CD, 6 days) of 0.075 log 2 fold change, a Z.LYZ.NS (ISC-enriched organoids [3]; [12]) of 0.655 and a Dose.FC.LYZ.NS (ISC-enriched organoids [3]; Dose 0.40 uM, ENR+CD, 6 days) of −0.008 log 2 fold change. It also gave a Z.LYZ.NS (ISC-enriched organoids [3]; [13]) of −0.067, a Dose.FC.LYZ.NS (ISC-enriched organoids [3]; Dose 2.00 uM, ENR+CD, 6 days) of 0.158 log 2 fold change and a Z.LYZ.NS (ISC-enriched organoids [3]; [14]) of 1.378. For the same compound, the Dose.FC.LYZ.NS (ISC-enriched organoids [3]; Dose 10.00 uM, ENR+CD, 6 days) was −0.043 log 2 fold change and the Z.LYZ.NS (ISC-enriched organoids [3]; [15]) was −0.376.

Work on `Nc1nc(OCc2cc(Br)cs2)c2[nH]cnc2n1` [Lomeguatrib] yielded a Z.LYZ.S (ISC-enriched organoids [1]; [4]) of −0.528, a Z.LYZ.S (ISC-enriched organoids [1]; [5]) of −0.139 and a Z.LYZ.S (ISC-enriched organoids [1]; [6]) of −0.356. For the same compound, the Z.LYZ.S (ISC-enriched organoids [1]; [7]) was −0.893, the SSMD.LYZ.S (ISC-enriched organoids [1]; [4]) was −0.435 and the SSMD.LYZ.S (ISC-enriched organoids [1]; [5]) was −0.121. The SSMD.LYZ.S (ISC-enriched organoids [1]; [6]) was −0.346, the SSMD.LYZ.S (ISC-enriched organoids [1]; [7]) was −0.820 and the Z.CTG (ISC-enriched organoids [2]; [8]) was −1.017. The Z.CTG (ISC-enriched organoids [2]; [9]) was −0.739, the Z.CTG (ISC-enriched organoids [2]; [10]) was 0.178 and the Z.CTG (ISC-enriched organoids [2]; [11]) was −0.192. For the same compound, the SSMD.CTG (ISC-enriched organoids [2]; [4]) was −0.489, the SSMD.CTG (ISC-enriched organoids [2]; [5]) was −0.422 and the SSMD.CTG (ISC-enriched organoids [2]; [6]) was 0.193. For the same compound, the SSMD.CTG (ISC-enriched organoids [2]; [7]) was −0.190, the SSMD.LYZ.NS (ISC-enriched organoids [3]; [4]) was −0.474 and the SSMD.LYZ.NS (ISC-enriched organoids [3]; [5]) was −0.137. For the same compound, the SSMD.LYZ.NS (ISC-enriched organoids [3]; [6]) was −0.189 and the SSMD.LYZ.NS (ISC-enriched organoids [3]; [7]) was −1.038.

With `CN1CCC(CNc2ccc3ncc(-c4cccc(OC(F)(F)F)c4)n3n2)CC1` [SGI-1776free base] the “Dose.FC.LYZ.S (log 2 fold change)” value (ISC-enriched organoids [1]; Dose 0.08 uM, primary screen) was 0.159, the “Dose.FC.LYZ.S (log 2 fold change)” value (ISC-enriched organoids [1]; Dose 0.40 uM, primary screen) was 0.088 and the “Dose.FC.LYZ.S (log 2 fold change)” value (ISC-enriched organoids [1]; Dose 2.00 uM, primary screen) was 0.011. For the same compound, the “Dose.FC.LYZ.S (log 2 fold change)” value (ISC-enriched organoids [1]; Dose 10.00 uM, primary screen) was −0.317, the “Z.CTG (standard z score)” value (ISC-enriched organoids [2]; Dose 0.08 uM, primary screen) was 0.407 and the “Dose.FC.CTG (log 2 fold change)” value (ISC-enriched organoids [2]; Dose 0.08 uM, primary screen) was 0.170. For the same compound, the “Z.CTG (standard z score)” value (ISC-enriched organoids [2]; Dose 0.40 uM, primary screen) was 0.665, the “Dose.FC.CTG (log 2 fold change)” value (ISC-enriched organoids [2]; Dose 0.40 uM, primary screen) was 0.278 and the “Z.CTG (standard z score)” value (ISC-enriched organoids [2]; Dose 2.00 uM, primary screen) was 0.506. For the same compound, the “Dose.FC.CTG (log 2 fold change)” value (ISC-enriched organoids [2]; Dose 2.00 uM, primary screen) was 0.212, the “Z.CTG (standard z score)” value (ISC-enriched organoids [2]; Dose 10.00 uM, primary screen) was −2.468 and the “Dose.FC.CTG (log 2 fold change)” value (ISC-enriched organoids [2]; Dose 10.00 uM, primary screen) was −1.033. For the same compound, the “Z.LYZ.NS (standard z score)” value (ISC-enriched organoids [3]; Dose 0.08 uM, primary screen) was 1.013, the “Dose.FC.LYZ.NS (log 2 fold change)” value (ISC-enriched organoids [3]; Dose 0.08 uM, primary screen) was 0.116 and the “Z.LYZ.NS (standard z score)” value (ISC-enriched organoids [3]; Dose 0.40 uM, primary screen) was 0.362. The “Dose.FC.LYZ.NS (log 2 fold change)” value (ISC-enriched organoids [3]; Dose 0.40 uM, primary screen) was 0.042, the “Z.LYZ.NS (standard z score)” value (ISC-enriched organoids [3]; Dose 2.00 uM, primary screen) was 0.108 and the “Dose.FC.LYZ.NS (log 2 fold change)” value (ISC-enriched organoids [3]; Dose 2.00 uM, primary screen) was 0.012. For the same compound, the “Z.LYZ.NS (standard z score)” value (ISC-enriched organoids [3]; Dose 10.00 uM, primary screen) was −1.784 and the “Dose.FC.LYZ.NS (log 2 fold change)” value (ISC-enriched organoids [3]; Dose 10.00 uM, primary screen) was −0.205.
